{
  "source": "patent US20050043262A1",
  "about": "“Novel specific inhibitor of the cyclin kinase inhibitor p21Waf1/Cip1 and methods of using the inhibitor” (priority 2000, published 2005)",
  "key": {"[1]": {"test_system": "laminin", "assay": "Laminin production and secretion (immunoblot of lysate and conditioned media)", "type": "cell-based, rat", "details": "VSM cells, 400 nM, TGF-β 0.1 to 10 ng/ml for 4 hours", "protocol": "Western blots: Cells were grown to confluence in 6 cm culture dishes and serum deprived. After transfection and/or treatment with appropriate agonist, conditioned medium was removed and saved and the cells were washed with phosphate-buffered saline and lysed in lysis buffer. Both supernatant and cell lysate were normalized to the lysate protein concentrations and Western blotted as described (Weiss, R. H.; et al. Am. J. Physiol. 274: C1521-C1529; 1998).\nThe p21 influences on matrix protein secretion in VSM cells were determined. Levels of the matrix proteins laminin and fibronectin were examined in both TGF-β stimulated lysate and conditioned media of cells in which p21 expression had been attenuated. The cells were transfected with either antisense p21 (SEQ. ID NO.:1) (400 nM), or random sequence control (SEQ. ID NO.:3) (400 nM) oligodeoxynucleotide, and then stimulated with TGF-β at for 0.1 to 10 ng/ml for 4 hours. Conditioned media and cell lysate were collected, and both medium and lysate volumes were normalized for the protein content in total cell lysate to exclude any skewing of the data due to cell proliferation. The proteins were electrophoresed and immunoblotted with either fibronectin (after immunoprecipitation to eliminate extraneous bands which appeared in the absence of this procedure) or laminin antibody."}, "[2]": {"test_system": "cyclinD/cdk4", "assay": "Cyclin D1 immunoprecipitation / cdk4 immunoblot in A431 cells", "type": "cell-based, human", "details": "PDGF-BB 30 ng/ml", "excerpt": "Cyclin/cdk interactions occur after growth factor stimulation and serve to integrate such responses with the CKIs and transmit them to the Rb/E2F systems, which leads to mitogenic signal transmission. The cyclin D1/cdk 4 interaction occurs early after growth factor stimulation (reviewed in (Arellano and Moreno, 1997 Int. J. Biochem. Cell Biol., 29, p. 559-573)), while the cyclinE/cdk2 interaction occurs late in G1 and is thought to have a role in triggering the actual onset of DNA replication after the cells have passed the restriction point (reviewed in (Sherr and Roberts, 1995: Genes Dev., 9, p. 1149-1163)). A431 cells were transfected with p21^Waf1/Cip1 antisense (SEQ. ID NO.:1) or sense (SEQ. ID NO.:2) oligodeoxynucleotide, allowed to grow overnight in serum-free media, and then stimulated for various times with PDGF-BB. The cells were subsequently immunoprecipitated with either cyclinD1 or cyclinE and immunoblotted with cdk4 or cdk2, respectively. A lysate sample, showing the mobility of the immunoprecipitated cdks, confirmed the identity of the cdks. A431 cells were transfected with antisense (SEQ. ID NO.:1) or sense p21^Waf1/Cip1 (SEQ. ID NO.:2) oligonucleotides. […]"}, "[3]": {"test_system": "p21^Waf1/Cip1", "assay": "PMA-induced p21 level by Western blot in A431 cells", "type": "cell-based, human", "details": "200 nM oligodeoxynucleotide, PMA 100 ng/ml up to 6 hours", "protocol": "(§1) Western blots: Cells were grown to confluence in 6 cm culture dishes and serum deprived. After transfection and or treatment with appropriate agonist, the cells were washed with phosphate-buffered saline and lysed in lysis buffer and the supernatant was Western blotted as described (Weiss and Nuccitelli, 1992 J. Biol. Chem., 267, p. 5608-5613).\nPMA is a potent inducer of p21^Waf1/Cip1 in a variety of different cell lines (Huang et al., 1995 Proc. Natl. Acad. Sci. US.A., 92, p. 4793-4797; Michieli et al., 1994 Cancer Res., 54, p. 3391-3395) and was employed to examine p21^Waf1/Cip1 levels after antisense transfection and confirm efficacy of translation to attenuate p21^Waf1/Cip1 levels. A431 cells were transfected with 200 nM antisense p21^Waf1/Cip1 (SEQ. ID NO.:1) or sense p21^Waf1/Cip1 oligodeoxynucleotide (SEQ. ID NO.:2). After overnight incubation in serum-free medium, the cells were stimulated with PMA (100 ng/ml) for the times indicated, lysed, and the lysates were Western blotted with p21^Waf1/Cip1 or α-actin antibody."}, "[4]": {"test_system": "α-actin", "assay": "alpha-actin protein level by Western blot in A10 VSM cells", "type": "cell-based, rat", "protocol": "as §1, with “et al., 1998 Am.” for “and Nuccitelli, 1992”, “Physiol., 274,” for “Biol. Chem., 267,”, “C1521-C1529).” for “5608-5613).”\nAt the times indicated after the overnight incubation (in hours), the medium was changed to quiescence medium and the cells were stimulated with PMA for 4 hours to show maximal p21^Waf1/Cip1 expression (FIG. 6a). The lysates were immunoblotted with (a) p21^Waf1/Cip1 or p27^Kip1 antibody or (b) α-actin antibody. This is likely due to sequence similarity between the two genes, as p21^Waf1/Cip1 shares 43% sequence identity with p27^Kip1 in the cdk/cyclin binding site (residues 27-88), located in the conserved N terminus (Nomura et al., 1997 Gene, 191, p. 211-218; Toyoshima and Hunter, 1994 Cell, 78, p. 67-74).\nUsing a random sequence phosphorothioate oligodeoxynucleotide (SEQ. ID NO.:3) as a control, the effect of the antisense oligodeoxynucleotide to p21 (400 nM) on p21 and α-actin protein expression in A10 VSM cells, was examined. The lysates, normalized for protein content, were Western blotted with either p21 or α-actin antibody."}, "[5]": {"test_system": "cyclin E/cdk 2", "assay": "Cyclin E immunoprecipitation / cdk 2 immunoblot in A10 VSM cells", "type": "cell-based, rat", "details": "PDGF-BB 30 ng/ml", "protocol": "Cells were transfected with p21^Waf1/Cip1 antisense (SEQ. ID NO.:1) or sense oligodeoxynucleotide (SEQ. ID NO.:2), allowed to grow overnight in serum-free media. After overnight incubation in serum-free medium, the cells were stimulated with PDGF-BB (30 ng/ml) for the times indicated. The cells were subsequently immunoprecipitated with either cyclin D1 or cyclin E and immunoblotted with cdk 4 or cdk 2, respectively."}},
  "data": [
    {"substance": "5′-GACATCACCAGGATCGGACAT-3′", "values": [
      {"measurement": "production and secretion of laminin", "setting": "[1]", "value": "markedly reduced"},
      {"measurement": "cyclinD/cdk4 association", "setting": "[2]", "value": "no change"},
      {"measurement": "PMA-induced p21^Waf1/Cip1 levels", "setting": "[3]", "value": "significant attenuation"},
      {"measurement": "α-actin protein level", "setting": "[4]; 400 nM", "value": "no effect"},
      {"measurement": "levels of α-actin", "setting": "[4]; identical conditions to p21 blot", "value": "not altered"},
      {"measurement": "cyclin E/cdk 2 interaction", "setting": "[5]", "value": "no change"}
    ]}
  ]
}
